Positions count from the first letter of the chain named.
Assays:
GAL-4 DBS = conditions: read-out: Kd for binding; cited from earlier work
murine acute EAE model = experiment: Mouse acute EAE model, clinical scoring; assay type: in vivo, SJL mice; conditions: for clinical scores of EAE, positive controls: i.p. twice daily, Mesopram 9 mg/kg, Prednisolone 2.5 mg/kg
Mx1 RNA [1] = experiment: Mx1 RNA induction in L929 cells (TaqMan RT-PCR); assay type: cell-based, murine
Description: FIG. 5 illustrates Mx1 RNA induction in vitro (in L929 cells) by mIFN-ÿ. L929 cells were seeded at 5×10^5 cells in 6 well plates and stimulated with increasing amounts of purified recombinant mIFN-ÿ protein. Four hours after treatment the cells were harvested, RNA isolated, and Mx1 RNA quantitated by TaqMan analysis. Mx1 RNA expression is plotted as the fold increase relative to GAPDH RNA.
A quantitative PCR/RT-PCR assay was developed to quantitate the levels of Mx1 mRNA in murine PBMC's. Specifically, peripheral blood mononuclear cells (PBMCs) were isolated from mice treated with either mIFN-β protein or following gene-based delivery of the mIFN-β gene. Blood samples obtained from treated mice were centrifuged on a ficoll cushion for 25 minutes at 2,000 rpm. Purified PBMCs were pelleted and RNA for the Mx1 assay was purified using the “RNAeasy” mini extraction kit from Qiagen. The RNA was stored in H2O at −80° C. Mx1 RT-PCR was performed using TaqMan® chemistry and analysis was done on the Applied Biosystems (ABI) PRISM® 7700 Sequence Detection instrument. For reverse transcription of the RNA and amplification of cDNA, the “One-step TaqMan® RNA” kit from ABI was used. […] The samples were analyzed with an Mx1-specific probe/primer combination. Mx1 expression was normalized to GAPDH expression measured in parallel using a standard assay from ABI. […]

Mx1 RNA [2] = experiment: Mx1 RNA induction in PBMCs of mice (quantitative RT-PCR) after mIFN-β protein or gene delivery; assay type: in vivo, C57BI/6 mice
Description: C57BI/6 mice were administered 15, 150, or 500 ng of purified recombinant mIFN-ÿ protein (specific activity-2.0×108 units/mg) by either i.v. (via tail vein) or i.m. injection (n=3 mice per group). At the specified time points post-injection mice were bled, and RNA was isolated from PBMCs. Mx1 RNA was measured by quantitative RT-PCR. The fold increase in Mx1 RNA is expressed relative to GAPDH values measured in the same samples. The controls include naive mice (N), and mice injected with the vehicle buffer only followed by Mx1 analysis at 2 hours (V2h) or 4h (V4h) post-injection. Each column represents the mean value+/−standard deviation.
A quantitative PCR/RT-PCR assay was developed to quantitate the levels of Mx1 mRNA in murine PBMC's. Specifically, peripheral blood mononuclear cells (PBMCs) were isolated from mice treated with either mIFN-β protein or following gene-based delivery of the mIFN-β gene. Blood samples obtained from treated mice were centrifuged on a ficoll cushion for 25 minutes at 2,000 rpm. […] The samples were analyzed with an Mx1-specific probe/primer combination. Mx1 expression was normalized to GAPDH expression measured in parallel using a standard assay from ABI.
B. Bolus Injection of mIFN-β Protein Induces Transient Biomarker Response In Vivo: The biomarker response after bolus injection of purified recombinant mIFN-β was measured in these studies.

IP-10 [3] = experiment: IP-10 plasma level in mice (ELISA) after mIFN-β protein or gene delivery; assay type: in vivo, C57BI/6 mice
Description: (§1) FIG. 7 illustrates induction levels of IP-10 (A) and JE (B) following i.v. or i.m. injection of murine IFN-ÿ protein. C57BI/6 mice were administered 15, 150, or 500 ng of purified recombinant mIFN-ÿ protein (specific activity=2.0×108 units/mg) by either i.v. (via tail vein) or i.m. injection (n=3 mice per group). The mice were bled at 2, 4, 6, 12, 24, and 48 hours post-injection, and the plasma levels of IP-10 and JE were measured by ELISA (R&D Systems).
FIG. 8 illustrates the induction of IP-10 following intramuscular injection of AAV-1-mIFN-ÿ DNA or mIFN-ÿ plasmid DNA with electroporation (EP) in mice. Normal mice (C57BI/6) were injected i.m. with either AAV-1-mIFN-ÿ (5×10^9 viral particles), or mIFN-ÿ plasmid DNA (150 ug) with electroporation. Mice were bled at the indicated time points and IP-10 levels in plasma were determined by ELISA. Each column represents the mean value+/−the standard deviation (n=5 mice per group).
C. Chemokines IP-10 and JE: During the analysis of plasma samples from mice treated with mIFN-β protein, two murine chemokines, IP-10 and JE the murine homologue of MCP-1 (monocyte chemoattractant protein, see e.g., Yoshimura, T (1989) FEBS Lett 244: 487-93), were also identified to have a similar response and activation to mIFN-β as Mx1 RNA (FIGS. 7 and 8). […]
The plasma samples were also analyzed for IP-10 and JE (FIGS. 7 and 8). […]

JE = JE plasma level in mice (ELISA) after mIFN-β protein or gene delivery; assay type: in vivo, C57BI/6 mice; conditions: each of three doses, i.v. or i.m.
Description: as §1
C. Chemokines IP-10 and JE: During the analysis of plasma samples from mice treated with mIFN-β protein, two murine chemokines, IP-10 and JE the murine homologue of MCP-1 (monocyte chemoattractant protein, see e.g., Yoshimura, T (1989) FEBS Lett 244: 487-93), were also identified to have a similar response and activation to mIFN-β as Mx1 RNA (FIGS. 7 and 8). A strong induction of IP-10 and JE was seen 2 hours after administration of mIFN-β protein either i.v. or i.m. IP-10 levels increased 3000-fold at the high dose delivered i.v. With each of the three mIFN-β doses tested, a rapid drop to background in the plasma levels of IP-10 and JE was observed by 24 hours.

[4] = Luciferase reporter gene assay for activity of purified mIFN-β protein; assay type: cell-based; conditions: commercial mIFN-β reference standard
Description: Specifically, the gene encoding mIFN-β was cloned into a pCEP4 expression vector (Invitrogen). The expression plasmid encoding mIFN-β was transiently transfected into 293E cells (Edge Biosystems) using X-tremeGene Ro-1539 Transfection Reagent (Roche). Murine IFN-β protein was purified from the medium by ion-exchange chromatography and by hydrophobic-interaction chromatography. The product was sialyzed and concentrated against dilution buffer (50 mM sodium acetate, pH 5.5, 150 mM sodium chloride, and 5% polypropylene glycol) and sterile filtered. Aliquots of the purified protein were stored at −80° C. The activity of the purified protein was assessed using a luciferase reporter gene assay (Hardy et al. (2001) Blood 97:473-482), using a commercial mIFN-β reference standard from Access Biomedical (San Diego, Calif.). The specific activity of the purified protein was 2×10^8 units/mg.

IP-10 [5] = experiment: MFP dose/response and plasmid re-injection with BRES-1/mIFN plasmid pGT26 in vivo, IP-10 ELISA; set-up: species or system C57BI/6 mice; conditions: MFP 0.0033 mg/kg i.p. days 7-10
Description: The inducible mIFN-γ expression plasmid pGT26 was injected and electroporated on day 0 into hind limb muscles of C57BI/6 mice. […] Bleeds were taken on day 88 and 200, respectively. Serum was assayed for the chemokine IP-10 by ELISA. The results are shown as the mean (n=5 animals per group).
In addition, a complete pharmacokinetic profile of the expression of the therapeutic molecule (TM) can be performed using an activator molecule (AM) to determine the AM dose/response, as well as the kinetics of induction of TM expression following AM administration. […] Blood was collected at days 11 post-injection, and serum samples were assayed for IP-10 (see “Experimental Design” below for details). […] By day 67 the level of IP-10 had decreased several-fold from the day 11 level, so the plasmid DNA was re-injected at day 77.
For safety studies in humans, a complete characterization of the rate at which the activator molecule (AM) and TM expression can be turned “off” following withdrawal of the AM can be performed. The frequency of AM dosing necessary to achieve steady state levels of the TM can be evaluated.
• DNA solutions: Each mouse received 250 ug of plasmid DNA in 150 ul PBS. • DNA delivery: Adult male C57BI/6 mice were injected bilaterally on day 0 with 250 ug plasmid DNA per mouse in 150 ul PBS. […]

V729L/W755A RP (pBRES) = molecular target: T1, V729L/W755A RP (pBRES) (Homo sapiens, UniProt P06401, V729L/W755A); experiment: Induction of luciferase, mSEAP or hIFNb from pBRES with V729L/W755A RP in C2C12 cells; assay type: cell-based, mouse; conditions: every orientation, three transgenes
T1 construct: expressed in transfected cells; host or cells: C2C12 mouse muscle cells
T1 sequence (P06401 640-914 V729L/W755A): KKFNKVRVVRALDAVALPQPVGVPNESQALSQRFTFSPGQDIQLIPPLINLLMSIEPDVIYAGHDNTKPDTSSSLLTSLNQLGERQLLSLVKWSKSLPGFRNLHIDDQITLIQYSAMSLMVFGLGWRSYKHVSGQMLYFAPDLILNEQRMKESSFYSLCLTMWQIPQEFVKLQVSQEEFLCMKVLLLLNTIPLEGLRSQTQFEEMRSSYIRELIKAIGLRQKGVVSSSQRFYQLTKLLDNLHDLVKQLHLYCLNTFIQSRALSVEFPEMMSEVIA

original RP (pGT45) = molecular target: T2, original RP (pGT45) (Homo sapiens, UniProt P06401); experiment: In vivo mSEAP serum level after inducer, mice with pGT45 (original RP); conditions: 0.33 mg/kg or 1 mg/kg i.p. days 7-10
T2 construct: expressed in transfected cells; host or cells: mouse hind limb muscle in vivo (plasmid injection plus electroporation)
T2 sequence (P06401 640-914): T1 sequence (P06401 640-914 V729L/W755A) with L90V, A116W
Description: Upon the conclusion of in vitro testing, the divergent orientation of mSEAP and RP in pGT45 and pGT1048 were tested side-by-side in a mouse study. Mice were injected with plasmid DNA in the hind limbs and electroporation was used to deliver the DNA into the muscle cells on day 0. […] Six hours after the last injection on day 10, samples of blood were collected from the tail veins of the mice. mSEAP levels in the serum were measured to determine the level of this reporter expression following induction with compounds. Additional blood samples were collected prior to injection of inducers on day 7, as well as on days 18 and 25 to monitor the drop off of mSEAP expression.

In the case of “GAL-4 residues 1-100: N-terminal DNA binding domain fragment of yeast GAL-4 protein”, the Kd (GAL-4 DBS) is listed as 3 nM.
For CCCOc1cc([C@]2(C)CNC(=O)O2)ccc1OC [Mesopram], the “clinical scores of EAE, positive controls” value (murine acute EAE model; first study) was “significantly decreased clinical scores” and the “clinical scores of EAE, positive controls” value (murine acute EAE model; second study) was “significantly decreased clinical scores”.
With C[C@]12C=CC(=O)C=C1CC[C@@H]1[C@@H]2[C@@H](O)C[C@@]2(C)[C@H]1CC[C@]2(O)C(=O)CO [Prednisolone] the “clinical scores of EAE, positive controls” value (murine acute EAE model; first study) was “significantly decreased clinical scores” and the “clinical scores of EAE, positive controls” value (murine acute EAE model; second study) was “significantly decreased clinical scores”.
With “mIFN-β: purified recombinant murine interferon-β protein expressed in 293E cells” the “increase in the level of Mx1 RNA” value (Mx1 RNA [1]) was 100 fold, the “EC50 of Mx1 RNA induction” value (Mx1 RNA [1]; 4 hours treatment) was “approximately 50 pg/ml” and the “time of highest Mx1 expression levels after injection” value (Mx1 RNA [2]; bolus protein) was 2 h. The “time after injection beyond which no Mx1 RNA levels above background were detected” value (Mx1 RNA [2]; bolus protein i.m.) was 12 h, the “time of drop to background of IP-10 plasma level” value (IP-10 [3]; each of three doses, i.v. or i.m.) was no more than 24 h and the “increase of IP-10 levels” value (IP-10 [3]; high dose delivered i.v.) was 3000 fold. For the same compound, the “time of drop to background of JE plasma level” value (JE) was no more than 24 h, the “specific activity of the purified protein” value [4] was 2×10^8 units/mg and the “clinical scores of EAE compared to vehicle treated mice” value (murine acute EAE model; first study, 30,000 units s.c. every other day) was “did not reach statistical significance”. The “clinical scores of EAE compared with vehicle treated mice” value (murine acute EAE model; first study, 100,000 units s.c. every other day) was “significantly decreased clinical scores” and the “clinical scores compared to the vehicle control treated mice” value (murine acute EAE model; second study, 100,000 Units s.c. every other day) was “significantly decreased clinical scores”.
With CC#C[C@]1(O)CC[C@H]2[C@@H]3CCC4=CC(=O)CCC4=C3[C@@H](c3ccc(N(C)C)cc3)C[C@@]21C [MFP, 11-(4-dimethylaminophenyl)-17-hydroxy-17c-propynyl-4,9-estradiene-3-one] the “IP-10 levels at lowest MFP dose” value (IP-10 [5]) was “no increase over background IP-10 levels”, the “activity of engineered RP when induced” value (V729L/W755A RP (pBRES)) was “retained full activity” and the “response (serum mSEAP) of mice to inducer” value (original RP (pGT45)) was “responded well”.

Reference: US20110020925A1, “NEW MODULATING MOLECULES FOR AN IMPROVED REGULATED EXPRESSION SYSTEM” (BAYER SCHERING PHARMA AKTIENGESELLSCHAFT, priority 2007, published 2011)
